Where two headings read alike, the source gives them in different places. Values belong to the molecule of their own block, whether it stands above or below them.
Experiments:
[1] = Solubility in water of each amide; assay type: physicochemical
Method: (§1) Solubility of several pesticides was measured in THF amides versus other amides. In addition the solubility in water of each amide has been checked.

[2] = Solubility of pesticides in THF amides versus other amides; assay type: physicochemical
Method: as §1

[3] = solubility of the amide solvent in water

SMILES: CN(C)C(=O)c1ccco1 [Example 5, 2-Furoic acid dimethyl amide]
Water solubility [1, 3]: Medium

SMILES: CCCCN(CCCC)C(=O)c1ccco1 [Example 6, 2-Furoic acid dibutyl amide]
Water solubility [1, 3]: Medium

SMILES: CCCCN(CCCC)C(=O)C1CCCO1 (stereo not shown) [Example 8, 2-Tetrahydrofuroic Acid Dibutylamide]
Water solubility [1, 3]: Medium

Continued, in another order:

Water solubility [1]: High
SMILES: CN(C)C(=O)C1CCCO1 (stereo not shown) [Example 7, THF dimethyl amide]
Solubility of biocides: Epoxyconazole [2]: 10 % b.w.
Solubility of biocides: Imidacloprid [2]: 19 % b.w.
Solubility of biocides: Oxyfluorfen [2]: 31 % b.w.
Solubility of biocides: Tebuconazole [2]: 46 % b.w.

Water solubility [1, 3]: Low
SMILES: CCCCCCCCCC(=O)N(C)C [Example C3, C10 dimethyl amide, reference compound]
Solubility of biocides: Epoxyconazole ([2]; Epoxyconazole dissolved in the named solvent): 8 % b.w.
Solubility of biocides: Imidacloprid ([2]; Imidacloprid dissolved in the named solvent): 2 % b.w.
Solubility of biocides: Oxyfluorfen ([2]; Oxyfluorfen dissolved in the named solvent): 27 % b.w.
Solubility of biocides: Tebuconazole ([2]; Tebuconazole dissolved in the named solvent): 32 % b.w.

— patent US9167812B2, “Biocide compositions comprising amides based on 2-furoic acid and its derivatives” (Cognis IP Management GmbH, priority 2010, dated 2015)
